We go through one compound from patent US20070155803A1, “Protease inhibitors” (ProZymex A/S, priority 2003, published 2007).

One assay concerns the target T1, Aspergillus DPP-IV (UniProt Q2UH35).
T1 construct: Aspergillus DPP-IV (Enzyme System Products, SPE01)
T1 sequence (Q2UH35 1-771): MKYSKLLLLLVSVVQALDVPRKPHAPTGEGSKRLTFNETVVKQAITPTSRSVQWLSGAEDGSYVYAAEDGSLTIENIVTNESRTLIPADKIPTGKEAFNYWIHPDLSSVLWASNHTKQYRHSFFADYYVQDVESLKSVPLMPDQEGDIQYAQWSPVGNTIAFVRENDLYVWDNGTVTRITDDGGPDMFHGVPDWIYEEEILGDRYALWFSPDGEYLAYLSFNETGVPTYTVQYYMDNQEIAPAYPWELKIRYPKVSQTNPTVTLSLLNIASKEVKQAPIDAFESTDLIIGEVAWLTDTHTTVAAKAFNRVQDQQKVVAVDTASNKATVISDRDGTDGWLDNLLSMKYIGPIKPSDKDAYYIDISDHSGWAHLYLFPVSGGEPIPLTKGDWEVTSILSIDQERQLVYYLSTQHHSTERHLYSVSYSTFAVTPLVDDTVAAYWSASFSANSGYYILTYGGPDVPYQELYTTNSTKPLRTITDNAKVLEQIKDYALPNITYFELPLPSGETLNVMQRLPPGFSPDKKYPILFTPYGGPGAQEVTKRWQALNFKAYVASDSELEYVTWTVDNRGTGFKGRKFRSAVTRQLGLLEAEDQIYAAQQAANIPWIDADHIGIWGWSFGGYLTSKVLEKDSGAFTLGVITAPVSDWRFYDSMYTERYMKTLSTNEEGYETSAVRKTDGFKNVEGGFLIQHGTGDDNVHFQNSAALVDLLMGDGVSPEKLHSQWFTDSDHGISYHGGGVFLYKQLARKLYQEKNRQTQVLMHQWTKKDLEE
Nature of the assay: Aspergillus DPP-IV assay. Format: biochemical. Here is the method:
Using this assay, the selectivity of a compound of the invention for hDPP-I over Aspergillus DPP-IV was determined, using a fluorogenic substrate.
Aspergillus DPP-IV (Enzyme System Products, SPE01; 5 mU dissolved in 25 μL assay buffer, giving a stock with a concentration of a 0.2 mU/μL). Prior to running experiment, 5 μL of enzyme stock solution was diluted to 0.004 mU/μL with 245 μL buffer.
Gly-Pro-AFC*TFA (Enzyme System Products AF039; 10 mg) was dissolved in 1 mL DMSO, giving a 20 mM solution. Diluted further in buffer to. 1 mM.
The assay was performed in 96-well plates. 60 μL assay buffer was added to the well followed-by 10 μL 1% DMSO in assay buffer (control) or a compound of the invention (100 μM, corresponding to 10 μM in the assay). Incubated at 37° C., then 10 μL enzyme (corresponding to 0.04 mU in assay) was added, followed by 10 μL substrate (100 μM in the assay). The excitation wavelength was 400 nm, and the emission was measured at 505 nm for 10-20 minutes at 30° C. Each measurement was made in duplicate. In the software (SOFTmax Pro) used for data collection from the fluorometer (Molecular Devices: Gemini XS), it was ensured that the measured slopes were linear (R^2>0.99). Data were exported to GraphPad Prism and nonlinear regression was performed using the option Sigmoidal dose-response (variable slope).

A further assay concerns the target T2, CYP1A2 (Homo sapiens, UniProt P05177).
T2 construct: purchased PanVera Vivid CYP1A2 Blue Screening Kit; host or cells: insect cells infected with baculovirus (microsomes)
T2 sequence (P05177 2-516 limits assumed): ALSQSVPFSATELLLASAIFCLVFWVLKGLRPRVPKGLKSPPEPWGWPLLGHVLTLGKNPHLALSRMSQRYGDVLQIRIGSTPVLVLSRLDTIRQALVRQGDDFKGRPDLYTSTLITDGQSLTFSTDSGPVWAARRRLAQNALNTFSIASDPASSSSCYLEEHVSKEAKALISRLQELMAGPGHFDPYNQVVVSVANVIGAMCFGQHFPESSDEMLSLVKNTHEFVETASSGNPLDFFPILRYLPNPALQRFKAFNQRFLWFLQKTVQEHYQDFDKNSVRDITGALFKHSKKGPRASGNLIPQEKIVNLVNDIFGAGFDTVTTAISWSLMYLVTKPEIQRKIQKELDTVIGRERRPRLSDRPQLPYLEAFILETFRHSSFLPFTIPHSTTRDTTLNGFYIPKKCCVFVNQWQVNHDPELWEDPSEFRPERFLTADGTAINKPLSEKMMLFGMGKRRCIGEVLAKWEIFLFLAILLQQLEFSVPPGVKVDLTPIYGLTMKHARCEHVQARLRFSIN
Description: Human CYP1A2 assay (Vivid CYP1A2 Blue Screening Kit). Format: in vitro ADME. Particulars: 20 μM cutoff; read-out: Metabolism: CYP enzymes (20 μM cutoff or IC50) CYP1A2. Here is the method:
This assay was used to determine the effect of a compound of the invention on the CYP1A2 liver metabolizing enzyme.
Vivid® CYP1A2 Blue Screening Kit from PanVera was used.
Vivid®CYP450 Reaction Buffer I: 200 mM potassium phosphate buffer, pH 8.
CYP1A2 baculosoniese® reagent: CYP1A2 and […] (P450-specific content: 1.1 μM). Microsomes prepared from insect cells that were infected with baculovirus containing the cDNA for human CYP1A2 and rabbit cytochrome P450 reductase.
Regenerating System: 333 mM glucose-6-phosphate and 40 U/mL glucose-6-phosphate dehydrogenase in 100 mM potassium phosphate buffer, pH 8.
Vivid® CYP1A2 Blue Substrate.
Vivid® Blue Standard: 3-cyano-7-hydroxycoumarin.
10 mM NADP^+ in 100 mM potassium phosphate buffer, pH 8.
(§1) Tubes thawed on ice. 2× reaction buffer dispensed (room temperature) in two eppendorf tubes (for Mix A and Mix B).
(§2) Controls or compounds of the invention: Diluted to a concentration of 50 μM. Positive control compound: α-naphthoflavone.
(§3) Negative controls: DMSO and H2O.
Mix A: 485 μL reaction buffer, 10 μL regeneration system, 5 μL Baculosome reagent. Mixed gently and placed on ice. […]
In a 96-well plate (Costar c-3904), 40 μL of 50 μM sample dispensed. […] Fluorescence determined (Molecular Devices, SPECTRAmax Gemini EM): Ex: 409 nm, Em: 460 nm, at 37° C. for 20 min. (Automix: 5 s, top read.).

The target in the next assay is T3, CYP2D6 (Homo sapiens, UniProt P10635).
T3 construct: purchased PanVera Vivid CYP2D6 Cyan Screening Kit
Nature of the assay: CYP2D6 assay (Vivid CYP2D6 Cyan Screening Kit). Format: in vitro ADME. Particulars: 20 μM cutoff; read-out: Metabolism: CYP enzymes (20 μM cutoff or IC50) CYP2D6. Here is the method:
as §1, §2, §3
Mix A: 485 μL reaction buffer, 10 μL regeneration system, 5 μL Baculosome reagent. Mixed gently and placed on ice.
Mix B: 88.5 μL reaction buffer, 1.5 μL substrate, 10 μL 10 mM NADP^+.
In a 96-well plate (Costar c-3904), 40 μL of 50 μM sample dispensed. 50 μl Mix A added. Incubated 20 min. at rt. Then, 10 μl of Mix B added. Fluorescence determined (Molecular Devices, SPECTRAmax Gemini EM): Ex: 409 nm, Em: 460 nm, at 37° C. for 20 min. (Automix: 5 s, top read.).
Following the procedure for CYP1A2, using the appropriate kits below, the effect of a compound of the invention on the other CYP enzymes was determined:
Vivid® CYP2D6 Cyan Screening Kit from PanVera.

Square brackets hold non-standard residues; d marks the D form. Peptide text beside a SMILES is read from it. Phe(3-F) = N[C@@H](Cc1cccc(F)c1)C(=O)O; hPhe = N[C@@H](CCc1ccccc1)C(=O)O; Abu = CC[C@H](N)C(=O)O; azaGly = NNC(=O)O

T3 sequence (P10635 whole entry): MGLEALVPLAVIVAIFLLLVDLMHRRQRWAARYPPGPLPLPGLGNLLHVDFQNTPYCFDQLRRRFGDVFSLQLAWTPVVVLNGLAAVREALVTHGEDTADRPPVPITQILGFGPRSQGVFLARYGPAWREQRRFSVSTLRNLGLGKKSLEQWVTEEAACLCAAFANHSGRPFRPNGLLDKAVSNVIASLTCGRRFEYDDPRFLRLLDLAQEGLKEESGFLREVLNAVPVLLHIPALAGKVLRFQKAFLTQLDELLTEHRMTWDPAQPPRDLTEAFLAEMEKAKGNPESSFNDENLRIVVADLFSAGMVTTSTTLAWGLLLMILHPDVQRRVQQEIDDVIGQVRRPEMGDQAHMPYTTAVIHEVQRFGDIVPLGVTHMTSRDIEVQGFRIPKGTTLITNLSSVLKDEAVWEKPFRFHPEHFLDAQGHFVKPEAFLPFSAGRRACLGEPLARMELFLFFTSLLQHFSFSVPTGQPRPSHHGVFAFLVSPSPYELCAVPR

As for `CC[C@H](N)C(=O)NNC(=O)N[C@@H](CCc1ccccc1)C(=O)N[C@@H](Cc1cccc(F)c1)C(N)=O` [Example 11, 1-(2S-2-Aminobutanoyl)-4-[2S-N-[2S-3-(m-fluorophenyl)propan-2-yl-amide]-4-phenylbutan-2-yl-amide]semicarbazide] (H-[Abu][azaGly][hPhe][Phe(3-F)]-NH2), at Aspergillus DPP-IV, the “Inhibition of DPP-IV (in words)” value is reported as “does not inhibit”. The IC50 was greater than 10 µM on Aspergillus DPP-IV (Aspergillus DPP-IV, 10 μM cutoff, read-out: Secondary enzymatic screening (10 μM cutoff or IC50) DPP-IV); greater than 20 µM on CYP1A2; greater than 20 µM at CYP2D6.
